Non-standard residues stand in square brackets, D forms with d. Primed or numbered codes have the meaning given here. No end group written: not given here. Orn(N3)′ = its azide, alkyne or alkene has reacted where a group follows in round brackets; Orn(N3) = [N-]=[N+]=NCCC[C@H](N)C(=O)O; tri‑GalNAc‑DBCO = not defined here
Columns and labels:
[1] = target: integrins that bind to PIP (total surface level on HEPG2 cells); assay: cell-based or functional assay
[2] = target: αvβ3 integrin on HEPG2 cells (UniProt P06756); assay: cell-based or functional assay
Chain of αvβ3 integrin on HEPG2 cells (P06756 31-1048 limits assumed, chain 1 of 2): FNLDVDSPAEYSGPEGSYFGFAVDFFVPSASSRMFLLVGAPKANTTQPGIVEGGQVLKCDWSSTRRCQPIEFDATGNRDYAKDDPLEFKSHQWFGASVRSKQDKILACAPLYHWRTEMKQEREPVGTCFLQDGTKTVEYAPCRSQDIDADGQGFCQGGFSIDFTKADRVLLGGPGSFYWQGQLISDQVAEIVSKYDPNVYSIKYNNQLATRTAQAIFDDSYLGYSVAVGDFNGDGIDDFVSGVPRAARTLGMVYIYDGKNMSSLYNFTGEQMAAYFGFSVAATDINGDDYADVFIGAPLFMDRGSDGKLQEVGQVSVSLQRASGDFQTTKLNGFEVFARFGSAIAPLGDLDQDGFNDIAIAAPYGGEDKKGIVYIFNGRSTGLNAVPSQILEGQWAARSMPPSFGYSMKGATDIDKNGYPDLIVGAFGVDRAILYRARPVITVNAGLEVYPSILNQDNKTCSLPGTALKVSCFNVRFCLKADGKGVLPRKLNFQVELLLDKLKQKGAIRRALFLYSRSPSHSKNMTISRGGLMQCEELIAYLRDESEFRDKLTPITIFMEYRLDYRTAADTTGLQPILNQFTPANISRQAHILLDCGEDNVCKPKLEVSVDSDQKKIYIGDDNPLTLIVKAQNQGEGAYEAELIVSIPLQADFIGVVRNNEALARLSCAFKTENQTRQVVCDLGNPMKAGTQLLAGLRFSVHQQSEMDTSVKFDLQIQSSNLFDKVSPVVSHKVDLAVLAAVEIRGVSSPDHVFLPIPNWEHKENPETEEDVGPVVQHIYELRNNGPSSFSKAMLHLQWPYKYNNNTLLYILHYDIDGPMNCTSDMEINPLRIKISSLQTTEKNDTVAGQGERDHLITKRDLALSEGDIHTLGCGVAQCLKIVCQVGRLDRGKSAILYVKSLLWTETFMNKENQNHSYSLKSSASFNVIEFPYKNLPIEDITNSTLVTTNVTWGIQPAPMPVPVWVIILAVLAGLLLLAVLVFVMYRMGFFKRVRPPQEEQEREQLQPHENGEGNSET
Chain of αvβ3 integrin on HEPG2 cells (P05106 27-788 limits assumed, chain 2 of 2, further chain): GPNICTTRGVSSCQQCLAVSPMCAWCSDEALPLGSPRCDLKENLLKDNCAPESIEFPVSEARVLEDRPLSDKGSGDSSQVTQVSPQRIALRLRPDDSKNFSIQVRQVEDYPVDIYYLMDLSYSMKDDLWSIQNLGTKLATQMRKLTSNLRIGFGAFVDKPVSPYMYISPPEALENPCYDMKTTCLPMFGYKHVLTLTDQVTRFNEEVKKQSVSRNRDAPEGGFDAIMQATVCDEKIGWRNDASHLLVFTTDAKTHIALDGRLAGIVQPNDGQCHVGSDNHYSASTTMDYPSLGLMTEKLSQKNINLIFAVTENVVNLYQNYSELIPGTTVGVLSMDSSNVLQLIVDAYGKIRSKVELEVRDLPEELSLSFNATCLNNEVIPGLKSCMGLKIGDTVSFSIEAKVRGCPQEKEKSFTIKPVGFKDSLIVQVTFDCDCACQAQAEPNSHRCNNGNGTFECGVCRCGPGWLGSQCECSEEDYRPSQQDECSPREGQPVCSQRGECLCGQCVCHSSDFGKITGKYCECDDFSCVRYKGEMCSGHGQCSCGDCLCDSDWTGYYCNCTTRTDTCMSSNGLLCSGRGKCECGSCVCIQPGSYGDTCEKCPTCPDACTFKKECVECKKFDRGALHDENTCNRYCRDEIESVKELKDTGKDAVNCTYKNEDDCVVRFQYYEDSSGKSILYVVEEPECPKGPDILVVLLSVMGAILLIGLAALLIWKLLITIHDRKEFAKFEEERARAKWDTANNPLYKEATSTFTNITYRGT

[3] = compared to mannose-6-phosphate glycans; cited from earlier work
[4] = tested on: cation independent M6PR (CIM6PR); conditions: compared to mannose-6-phosphate glycans; cited from earlier work
HEPG2 cells = assay: Antiproliferation assay (IncuCyte phase confluence); format: cell-based; conditions: for cell morphology: 100 nM, live imaging over 5 days following treatment; for antiproliferative phenotype after wash-out: 200 nM on day 0, washed on day 4, followed 6 d
Experimental: (§1) FIG. 13 Panel A: Synthesis of PIP—GaINAc. Tri-GaINAc-DBCO was conjugated to PIP, a knottin peptide that binds to multiple integrins. Panel B: Degradation of cell surface integrins in HEPG2 cells as determined by live-cell flow cytometry following 44 h of treatment with 100 nM PIP or PIP—GaINAc. Anti-αvβ3, anti-αvβ5 and PIP-Fc fusion construct were used for detection. PIP was genetically fused to the Fc domain of a mouse IgG2a to generate a PIP-Fc fusion construct that measures the surface expression of integrins recognized by PIP. Panel C: Percent proliferation of HEPG2 cells following 44 h of treatment with 50 nM, 100 nM or 200 nM PIP or PIP—GaINAc. Proliferation was quantified by phase confluence over time using IncuCyte. Panel D: Time course of percent proliferation of HEPG2 cells during 44 h of treatment with 200 nM PIP or PIP—GaINAc. Panel E: Percent proliferation of HEPG2 cells for 6 d following wash-out. Cells were treated with 200 nM PIP or PIP—GaINAc on day 0. PIP+ and PIP—GaINAc+ indicate the conditions where cells were washed on day 4 and replaced with fresh medium without treatment. PIP++ and PIP—GaINAc++ indicate the conditions where cells were washed on day 4 and replaced with fresh medium containing 200 nM PIP or PIP—GaINAc. Panel F: Live HEPG2 imaging by IncuCyte throughout the 5 d after treatment with 100 nM PIP or PIP—GaINAc. Images are representative of three independent experiments for F. Data in B-E represent three independent experiments, where B and C show the mean of three independent experiments ±s.e.m. P values were determined by unpaired two-tailed t-tests.
HEPG2 cells (100,000 cells per well in a 24-well plate) were treated with various concentrations of PIP or PIP—GaINAc. After treatments were added, cells were imaged every 4 h for the indicated times in the IncuCyte S3 Live-Cell Analysis system using the phase-imaging channel and a ×10 objective. For co-incubation experiments with ASF, 10 mg ml^−1 of ASF (Sigma-Aldrich) was treated with either PIP or PIP—GaINAc. The following analysis parameters were used to quantify phase confluence (%) in the Incucyte software: segmentation adjustment was set to 1, hole fill (μm2) was set to 300 and area minimum (μm^2) was set to 150. No other constraints were selected. Percent proliferation was then calculated by normalizing phase confluence values. Specifically, at any given timepoint n in the treatment time course (t=0→t=n), the change in confluence from t=0 to t=n (Δconfluence t=n) was calculated for each well as follows: Δconfluence t=n of well x=(confluence t=n of well x)−(confluence t=0 of well x), where x represents any given well in the experiment. This ensures that the value of each well is set to 0 at t=0. The average Δconfluence at the final time point of the untreated wells was set as the ‘max value’ (equivalent to 100% proliferation). Finally, data were normalized as follows:
% proliferationt=n=n of well x=(Δconfluencet=n of well x)/(max value),
where it is noted that while the metric is labeled as “% proliferation”, the effects quantitated are the summation of both cell proliferation and cell survival.

[5] = tested on: tumor-associated integrins; conditions: αvβ3, αvβ5, αvβ6 and α5β1 integrins; cited from earlier work
integrin αvβ5 = target: T1, integrin αvβ5 (Homo sapiens, UniProt P06756+P18084); assay: Cell surface integrin levels by live-cell flow cytometry in HEPG2 cells, anti-αvβ5 detection; format: cell-based; conditions: 44 h, 100 nM
T1 construct: endogenous in cells; host or cells: HEPG2
T1 sequence (P06756 31-889 limits assumed): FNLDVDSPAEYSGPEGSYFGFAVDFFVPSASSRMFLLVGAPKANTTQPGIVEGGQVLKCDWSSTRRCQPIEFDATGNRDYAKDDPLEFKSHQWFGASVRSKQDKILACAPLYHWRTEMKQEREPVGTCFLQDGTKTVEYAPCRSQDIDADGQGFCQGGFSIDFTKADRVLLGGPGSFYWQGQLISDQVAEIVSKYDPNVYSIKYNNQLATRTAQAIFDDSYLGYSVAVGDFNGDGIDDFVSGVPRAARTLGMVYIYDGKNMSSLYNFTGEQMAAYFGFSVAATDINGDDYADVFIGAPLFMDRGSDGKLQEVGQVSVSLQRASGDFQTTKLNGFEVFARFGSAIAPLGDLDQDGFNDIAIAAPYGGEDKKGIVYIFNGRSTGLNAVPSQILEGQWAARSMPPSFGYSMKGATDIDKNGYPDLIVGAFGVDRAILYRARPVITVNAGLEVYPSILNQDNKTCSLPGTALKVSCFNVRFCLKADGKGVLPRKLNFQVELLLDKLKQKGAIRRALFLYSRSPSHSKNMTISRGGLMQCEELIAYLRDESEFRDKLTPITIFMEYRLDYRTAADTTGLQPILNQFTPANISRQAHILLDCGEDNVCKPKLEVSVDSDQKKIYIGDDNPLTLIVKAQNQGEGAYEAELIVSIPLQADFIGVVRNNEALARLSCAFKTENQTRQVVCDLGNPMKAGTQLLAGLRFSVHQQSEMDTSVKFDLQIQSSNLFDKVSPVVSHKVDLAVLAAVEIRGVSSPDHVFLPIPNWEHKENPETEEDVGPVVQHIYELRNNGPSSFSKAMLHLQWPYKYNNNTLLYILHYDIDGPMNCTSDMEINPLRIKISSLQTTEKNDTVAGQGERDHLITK
T1 sequence (P06756 891-1048 partner limits assumed): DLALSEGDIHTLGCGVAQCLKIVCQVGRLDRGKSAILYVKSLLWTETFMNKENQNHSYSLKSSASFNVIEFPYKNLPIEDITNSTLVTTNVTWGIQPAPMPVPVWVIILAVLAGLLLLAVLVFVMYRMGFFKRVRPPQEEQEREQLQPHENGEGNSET
T1 sequence (P18084 24-799): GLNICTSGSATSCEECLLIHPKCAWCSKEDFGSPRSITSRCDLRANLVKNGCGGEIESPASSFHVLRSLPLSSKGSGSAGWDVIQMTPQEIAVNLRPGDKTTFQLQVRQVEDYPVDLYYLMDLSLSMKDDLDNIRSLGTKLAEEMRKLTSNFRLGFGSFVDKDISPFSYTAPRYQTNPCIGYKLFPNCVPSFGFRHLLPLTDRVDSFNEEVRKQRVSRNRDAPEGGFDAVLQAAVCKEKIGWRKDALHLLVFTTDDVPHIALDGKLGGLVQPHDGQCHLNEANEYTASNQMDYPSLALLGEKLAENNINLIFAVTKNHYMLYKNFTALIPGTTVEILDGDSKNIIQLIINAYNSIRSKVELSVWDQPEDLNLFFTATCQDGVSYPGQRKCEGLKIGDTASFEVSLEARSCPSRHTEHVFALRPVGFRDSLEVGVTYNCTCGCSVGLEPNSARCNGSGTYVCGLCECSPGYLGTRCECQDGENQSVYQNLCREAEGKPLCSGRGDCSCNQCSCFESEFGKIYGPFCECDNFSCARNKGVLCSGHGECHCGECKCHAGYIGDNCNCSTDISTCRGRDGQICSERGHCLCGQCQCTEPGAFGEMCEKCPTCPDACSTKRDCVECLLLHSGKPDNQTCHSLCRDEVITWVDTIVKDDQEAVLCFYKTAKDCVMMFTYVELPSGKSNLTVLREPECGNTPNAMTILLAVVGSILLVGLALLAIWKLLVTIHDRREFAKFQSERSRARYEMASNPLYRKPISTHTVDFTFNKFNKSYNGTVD
Experimental: as §1, with “PIP++ and PIP—GaINAc++ indicate the conditions where cells were washed on day 4 and replaced with fresh medium containing 200 nM PIP or PIP—GaINAc. Panel F: Live HEPG2 imaging by IncuCyte throughout the 5 d after treatment with 100 nM PIP or PIP—GaINAc. Images are representative of three independent experiments for F. Data in B-E represent three independent experiments, where B and C show the mean of three independent experiments ±s.e.m.” left out
(§2) The surface levels of integrins were measured by flow cytometry following treatment in HEPG2 cells. […] Nonetheless, the total surface level of integrins that bind to PIP was determined by utilizing a PIP-Fc fusion for staining of the Fc fragment. […]

[6] = tested on: integrins that bind to PIP; assay: Total surface level of integrins that bind to PIP, PIP-Fc fusion detection, HEPG2 cells; format: cell-based; conditions: 44 h, 100 nM, flow cytometry
Experimental: as §1, with “PIP++ and PIP—GaINAc++ indicate the conditions where cells were washed on day 4 and replaced with fresh medium containing 200 nM PIP or PIP—GaINAc. Panel F: Live HEPG2 imaging by IncuCyte throughout the 5 d after treatment with 100 nM PIP or PIP—GaINAc. Images are representative of three independent experiments for F. Data in B-E represent three independent experiments, where B and C show the mean of three independent experiments ±s.e.m.” left out
as §2

αvβ3 integrin = target: T2, αvβ3 integrin (Homo sapiens, UniProt P05106+P06756); assay: Cell surface integrin levels by live-cell flow cytometry in HEPG2 cells, anti-αvβ3 detection; format: cell-based; conditions: 44 h, 100 nM
T2 construct: endogenous in cells; host or cells: HEPG2
T2 sequence (P06756 31-889 limits assumed): as the sequence (P06756 31-889 limits assumed) above
T2 sequence (P06756 891-1048 partner limits assumed): as the sequence (P06756 891-1048 partner limits assumed) above
T2 sequence (P05106 27-788): as the sequence (P05106 27-788 limits assumed, chain 2 of 2, further chain) above
Experimental: as §1, with “PIP++ and PIP—GaINAc++ indicate the conditions where cells were washed on day 4 and replaced with fresh medium containing 200 nM PIP or PIP—GaINAc. Panel F: Live HEPG2 imaging by IncuCyte throughout the 5 d after treatment with 100 nM PIP or PIP—GaINAc. Images are representative of three independent experiments for F. Data in B-E represent three independent experiments, where B and C show the mean of three independent experiments ±s.e.m.” left out
as §2

| Molecule | depletion of total surface integrins that bind to PIP on HEPG2 cells, detected by PIP-Fc staining (flow cytometry) [1] | relative binding affinity for the CIM6PR [4] | cell morphology (HEPG2 cells) | antiproliferative phenotype after wash-out (HEPG2 cells) | effect on surface expression of integrin αvβ5 (integrin αvβ5) | integrins depleted (detection of PIP-Fc) [6] | further results |
| --- | --- | --- | --- | --- | --- | --- | --- |
| PIP-GalNAc (PIP conjugated to a single tri-GalNAc-DBCO moiety) (peptide) | 60% | – | – | – | – | – | cell surface αvβ3 integrin level on HEPG2 cells, live-cell flow cytometry after 44 h of treatment with 100 nM [2]: 3 fold |
| C=CC(=O)OC[C@@H](O)[C@@H](O)[C@H](O)[C@H](O)C=O [mannose-6-acrylate glycans, mannose-6-acrylate] | – | 0.7 | – | – | – | – | serum stability [3]: better serum stability |
| polyspecific integrin-binding knottin peptide (PIP), synthesized with 5-azido-L-norvaline at position 15 and tyrosine at position 31 | 40% | – | – | – | – | – | – |
| mannose-6-carboxylate [mannose-6-carboxylate glycans] | – | 0.3 | – | – | – | – | – |
| PIP: polyspecific integrin-binding knottin peptide, 33-mer (SEQ ID NO:42); 5-azido-L-norvaline at position 15, tyrosine at position 31 (GCPRPRGDNPPLTC[Orn(N3)]QDSDCLAGCVCGPNGYCG; disulfide (positions not given here); not fully specified (bridges); also: further groups not given here) | – | – | epithelial-like clusters | wash-out rescued proliferation | increased the expression | 40% | binding affinity to tumor-associated integrins [5]: high affinity |
| PIP—GaINAc: PIP knottin with azido-norvaline site-specifically conjugated via a single tri-GaINAc-DBCO moiety (GCPRPRGDNPPLTC[Orn(N3)′](tri‑GalNAc‑DBCO)QDSDCLAGCVCGPNGYCG; disulfide (positions not given here); not fully specified (bridges); reading uncertain; also: further groups not given here) | – | – | formed smaller, circular clusters | persisted after conjugate wash-out | modest degradation | about 60% | antiproliferative effect on co-incubation with asialofetuin (ASF), inhibitor of ASGPR (HEPG2 cells; 10 mg ml^−1 ASF): ablated the enhanced antiproliferative effect; inhibition of proliferation (HEPG2 cells; various concentrations (50, 100, 200 nM) and durations of treatment up to 44 h): substantially more effective at inhibiting proliferation than PIP; depletion of cell surface αvβ3 integrin levels relative to PIP treatment alone (αvβ3 integrin): threefold |

From patent publication US20230211001A1, “Lysosomal Targeting Molecules Comprising Knottin Peptides And Related Compositions And Methods” (The Board of Trustees of the Leland Stanford Junior …, priority 2020, published 2023)
